Laboratory results published in ChEMBL document CHEMBL1201861, “Genomics of Drug Sensitity in Cancer screening data, Wellcome Trust Sanger Institute”.
Several values for one entry are separate records, joined by “and”; a condition that tells them apart may be missing. Equal entries are not always repeated. Where a SMILES comes first, the peptide text is derived from it. The star is where a group is joined. Cbz = O=C(OCc1ccccc1)*

Experiments:
[1] = tested on: CP66-MEL; assay: cells; assay type: functional, cell-based; conditions: Homo sapiens;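 further: growth inhibition of CP66-MEL cells determined in a cell viability assay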
Description: SANGER: Inhibition of human CP66-MEL cell growth in a cell viability assay.

[2] = tested on: CPC-N; assay: cells; assay type: functional, cell-based, Homo sapiens;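 further: growth inhibition of CPC-N cells, with a cell viability assay as the readout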
Description: SANGER: Inhibition of human CPC-N cell growth in a cell viability assay.

[3] = tested on: EB-3; assay: cells; assay type: functional, cell-based, Homo sapiens;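 further: human EB-3 cells, growth inhibition read out via a cell viability assay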
Description: SANGER: Inhibition of human EB-3 cell growth in a cell viability assay.

[4] = tested on: ECC4; assay: cells; assay type: functional, cell-based, Homo sapiens;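 further: growth inhibition of ECC4 cells, read out with a cell viability assay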
Description: SANGER: Inhibition of human ECC4 cell growth in a cell viability assay.

[5] = tested on: LC-1F; assay: cells; assay type: functional, cell-based, Homo sapiens;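 further: growth inhibition of human LC-1F cells, read out with a cell viability assay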
Description: SANGER: Inhibition of human LC-1F cell growth in a cell viability assay.

[6] = tested on: LC4-1; assay: cells; assay type: functional, cell-based, Homo sapiens;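 further: growth inhibition of LC4-1 cells, read out with a cell viability assay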
Description: SANGER: Inhibition of human LC4-1 cell growth in a cell viability assay.

[7] = tested on: LOUCY; assay: cells; assay type: functional, cell-based, Homo sapiens;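 further: growth inhibition of human LOUCY cells, read out with a cell viability assay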
Description: SANGER: Inhibition of human LOUCY cell growth in a cell viability assay.

[8] = tested on: NCI-H1882; assay: cells; assay type: functional, cell-based, Homo sapiens;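 further: growth inhibition of the cell line, determined with a viability assay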
Description: SANGER: Inhibition of human NCI-H1882 cell growth in a cell viability assay.

[9] = tested on: NCI-H2141; assay: cells; assay type: functional, cell-based, Homo sapiens;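 further: growth inhibition of human NCI-H2141 cells, read out with a cell viability assay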
Description: SANGER: Inhibition of human NCI-H2141 cell growth in a cell viability assay.

[10] = tested on: NCI-H2196; assay: cells; assay type: functional, cell-based, Homo sapiens;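 further: cell viability assay used as the readout of growth inhibition in NCI-H2196 cells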
Description: SANGER: Inhibition of human NCI-H2196 cell growth in a cell viability assay.

[11] = tested on: PF-382; assay: cells; assay type: functional, cell-based, Homo sapiens
Description: SANGER: Inhibition of human PF-382 cell growth in a cell viability assay.

[12] = tested on: SCC-3; assay: cells; assay type: functional, cell-based, Homo sapiens;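 further: cell viability assay measuring inhibition of SCC-3 cell growth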
Description: SANGER: Inhibition of human SCC-3 cell growth in a cell viability assay.

[13] = tested on: SCLC-21H; assay: cells; assay type: functional, cell-based, Homo sapiens;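 further: growth inhibition of cultured human SCLC-21H cells, read out with a cell viability assay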
Description: SANGER: Inhibition of human SCLC-21H cell growth in a cell viability assay.

[14] = tested on: SIMA; assay: cells; assay type: functional, cell-based, Homo sapiens;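 further: growth inhibition of SIMA cells, measured with a cell viability readout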
Description: SANGER: Inhibition of human SIMA cell growth in a cell viability assay.

[15] = tested on: ST486; assay: SANGER: Inhibition of human ST486 cell growth in a cell viability assay.; assay type: functional, cell-based
[16] = tested on: TUR; assay: cells; assay type: functional, cell-based, Homo sapiens;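 further: growth inhibition of human TUR cells, read out with a cell viability assay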
Description: SANGER: Inhibition of human TUR cell growth in a cell viability assay.

[17] = tested on: CHP-126; assay: cells; assay type: functional, cell-based, Homo sapiens
Description: SANGER: Inhibition of human CHP-126 cell growth in a cell viability assay.

[18] = tested on: HCC 2998; assay: cells; assay type: functional, cell-based; conditions: Homo sapiens;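 further: growth inhibition of human HCC2998 cells, measured with a cell viability read-out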
Description: SANGER: Inhibition of human HCC2998 cell growth in a cell viability assay.

[19] = tested on: NB12; assay: cells; assay type: functional, cell-based; conditions: Homo sapiens;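 further: growth inhibition of human NB12 cells, read out by a cell viability assay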
Description: SANGER: Inhibition of human NB12 cell growth in a cell viability assay.

[20] = Homo sapiens, NCI-H2196, read-out: IC50

Measured: IC50

C=CC(=O)N1CCCC(Nc2nc(Nc3ccc(N(C)C(=O)CC)cc3)nc3[nH]cnc23)C1 (centres undefined)
> 10200 nM: [1] | [2]; Homo sapiens, CPC-N | [3]; Homo sapiens, EB-3 | [4]; Homo sapiens, ECC4 | [5]; Homo sapiens, LC-1F | [6]; Homo sapiens, LC4-1 | [7]; Homo sapiens, LOUCY | [8]; Homo sapiens, NCI-H1882 | [9]; Homo sapiens, NCI-H2141 | [10]; [20] | [11]; Homo sapiens, PF-382 | [12]; Homo sapiens, SCC-3 | [13]; Homo sapiens, SCLC-21H | [14]; Homo sapiens, SIMA | [15]; Homo sapiens, ST486 | [16]; Homo sapiens, TUR | [17]; Homo sapiens, CHP-126

COc1ccc(N(C(=O)Oc2c(C)cccc2C)c2ccnc(Nc3ccc(N4CCN(C)CC4)cc3)n2)c(OC)c1
> 5120 nM: [1] | [2]; Homo sapiens, CPC-N | [4]; Homo sapiens, ECC4 | [5]; Homo sapiens, LC-1F | [6]; Homo sapiens, LC4-1 | [7]; Homo sapiens, LOUCY | [8]; Homo sapiens, NCI-H1882 | [9]; Homo sapiens, NCI-H2141 | [10]; [20] | [12]; Homo sapiens, SCC-3 | [13]; Homo sapiens, SCLC-21H | [14]; Homo sapiens, SIMA | [15]; Homo sapiens, ST486 | [16]; Homo sapiens, TUR | [17]; Homo sapiens, CHP-126
708 nM: [11]; Homo sapiens, PF-382
2160 nM: [3]; Homo sapiens, EB-3

Cc1cc(N2CCOCC2)cc2[nH]c(-c3c(NC[C@@H](O)c4cccc(Cl)c4)cc[nH]c3=O)nc12
> 5120 nM: [1] | [3]; Homo sapiens, EB-3 | [4]; Homo sapiens, ECC4 | [5]; Homo sapiens, LC-1F | [6]; Homo sapiens, LC4-1 | [7]; Homo sapiens, LOUCY | [9]; Homo sapiens, NCI-H2141 | [10]; [20] | [11]; Homo sapiens, PF-382 | [12]; Homo sapiens, SCC-3 | [13]; Homo sapiens, SCLC-21H | [14]; Homo sapiens, SIMA | [15]; Homo sapiens, ST486 | [16]; Homo sapiens, TUR | [17]; Homo sapiens, CHP-126
956 nM: [8]; Homo sapiens, NCI-H1882
3590 nM: [2]; Homo sapiens, CPC-N

NC(=O)c1cccc(-c2cc(Nc3ccc(OC(F)(F)F)cc3)ncn2)c1
> 1280 nM: [1] | [2]; Homo sapiens, CPC-N | [3]; Homo sapiens, EB-3 | [4]; Homo sapiens, ECC4 | [5]; Homo sapiens, LC-1F | [6]; Homo sapiens, LC4-1 | [7]; Homo sapiens, LOUCY | [8]; Homo sapiens, NCI-H1882 | [9]; Homo sapiens, NCI-H2141 | [10]; [20] | [11]; Homo sapiens, PF-382 | [12]; Homo sapiens, SCC-3 | [13]; Homo sapiens, SCLC-21H | [14]; Homo sapiens, SIMA | [15]; Homo sapiens, ST486 | [16]; Homo sapiens, TUR | [17]; Homo sapiens, CHP-126

CC(C)C[C@H](NC(=O)[C@H](Cc1ccccc1)NC(=O)c1cnccn1)B(O)O [BORTEZOMIB]
1.56 nM: [19]
4.05 nM: [9]; Homo sapiens, NCI-H2141
> 20 nM: [2]; Homo sapiens, CPC-N | [4]; Homo sapiens, ECC4 | [13]; Homo sapiens, SCLC-21H | [14]; Homo sapiens, SIMA | [15]; Homo sapiens, ST486 | [16]; Homo sapiens, TUR
1.2 nM: [8]; Homo sapiens, NCI-H1882
5.06 nM: [17]; Homo sapiens, CHP-126
1.79 nM: [6]; Homo sapiens, LC4-1
0.473 nM: [1]
2.37 nM: [12]; Homo sapiens, SCC-3
0.412 nM: [18]
3.74 nM: [5]; Homo sapiens, LC-1F
1.47 nM: [11]; Homo sapiens, PF-382
0.293 nM: [7]; Homo sapiens, LOUCY
2.66 nM: [3]; Homo sapiens, EB-3
6.8 nM: [10]; [20]

C[C@@H](Oc1cc(-c2cnn(C3CCNCC3)c2)cnc1N)c1c(Cl)ccc(F)c1Cl [CRIZOTINIB]
> 2000 nM: [1] | [2]; Homo sapiens, CPC-N | [3]; Homo sapiens, EB-3 | [4]; Homo sapiens, ECC4 | [5]; Homo sapiens, LC-1F | [6]; Homo sapiens, LC4-1 | [7]; Homo sapiens, LOUCY | [8]; Homo sapiens, NCI-H1882 | [9]; Homo sapiens, NCI-H2141 | [10]; [20] | [11]; Homo sapiens, PF-382 | [13]; Homo sapiens, SCLC-21H | [14]; Homo sapiens, SIMA | [15]; Homo sapiens, ST486 | [16]; Homo sapiens, TUR | [17]; Homo sapiens, CHP-126
357 nM: [12]; Homo sapiens, SCC-3

Nc1ccccc1NC(=O)c1ccc(CNC(=O)OCc2cccnc2)cc1 [ENTINOSTAT]
> 5000 nM: [14]; Homo sapiens, SIMA | [16]; Homo sapiens, TUR
840 nM: [6]; Homo sapiens, LC4-1
3970 nM: [4]; Homo sapiens, ECC4
318 nM: [19]
1120 nM: [5]; Homo sapiens, LC-1F | [11]; Homo sapiens, PF-382
4060 nM: [10]; [20]
879 nM: [15]; Homo sapiens, ST486
3170 nM: [9]; Homo sapiens, NCI-H2141
1260 nM: [13]; Homo sapiens, SCLC-21H
4000 nM: [3]; Homo sapiens, EB-3
805 nM: [2]; Homo sapiens, CPC-N
61 nM: [12]; Homo sapiens, SCC-3
634 nM: [7]; Homo sapiens, LOUCY
402 nM: [17]; Homo sapiens, CHP-126
2480 nM: [1]
784 nM: [18]
2680 nM: [8]; Homo sapiens, NCI-H1882

Cc1ccc(NC(=O)c2ccc(CN3CCN(C)CC3)cc2)cc1Nc1nccc(-c2cccnc2)n1 [IMATINIB]
685 nM: [15]; Homo sapiens, ST486
> 2000 nM: [1] | [2]; Homo sapiens, CPC-N | [3]; Homo sapiens, EB-3 | [4]; Homo sapiens, ECC4 | [5]; Homo sapiens, LC-1F | [6]; Homo sapiens, LC4-1 | [7]; Homo sapiens, LOUCY | [8]; Homo sapiens, NCI-H1882 | [9]; Homo sapiens, NCI-H2141 | [10]; Homo sapiens, NCI-H2196 | [11]; Homo sapiens, PF-382 | [12]; Homo sapiens, SCC-3 | [13]; Homo sapiens, SCLC-21H | [14]; Homo sapiens, SIMA | [16]; Homo sapiens, TUR | [17]; Homo sapiens, CHP-126

CC(C)C[C@@H](C=O)NC(=O)[C@H](CC(C)C)NC(=O)[C@H](CC(C)C)NC(=O)OCc1ccccc1 [MG-132] (Cbz-Leu-Leu-Leu-aldehyde)
590 nM and > 1000 nM: [8]; nci-h1882
255 nM and > 1000 nM: [7]; loucy
747 nM: [6]; lc4-1
> 1000 nM: [2]; cpc-n | [3]; eb-3 | [4]; ecc4 | [5]; lc-1f | [19] | [9]; nci-h2141 | [10]; [20] | [10]; nci-h2196, read-out: IC50 | [12]; Homo sapiens, SCC-3 | [12]; scc-3 | [13]; sclc-21h | [14]; sima | [15]; Homo sapiens, ST486 | [15]; st486 | [16]; tur | [17]; chp-126
436 nM: [6]; Homo sapiens, LC4-1
167 nM and 584 nM: [11]; pf-382
939 nM: [18]

COc1cc(N2CCC(N3CCN(C)CC3)CC2)ccc1Nc1ncc(Cl)c(Nc2ccccc2S(=O)(=O)C(C)C)n1 [TAE-684]
> 2000 nM: [1] | [3]; Homo sapiens, EB-3 | [4]; Homo sapiens, ECC4 | [5]; Homo sapiens, LC-1F | [6]; Homo sapiens, LC4-1 | [7]; Homo sapiens, LOUCY | [9]; Homo sapiens, NCI-H2141 | [10]; [20] | [13]; Homo sapiens, SCLC-21H | [14]; Homo sapiens, SIMA | [15]; Homo sapiens, ST486 | [16]; Homo sapiens, TUR
1850 nM: [2]; Homo sapiens, CPC-N
860 nM: [17]; Homo sapiens, CHP-126
< 7.81 nM: [12]; Homo sapiens, SCC-3
1570 nM: [11]; Homo sapiens, PF-382
1240 nM: [8]; Homo sapiens, NCI-H1882
